Consider two compounds from PMC10487843, “Evaluation of Anticancer and Anti-Inflammatory Activities of Some Synthetic Rearranged Abietanes” (International Journal of Molecular Sciences, 2023).

Converted amounts (≈) assume the structure as drawn. Where two headings read alike, the source gives them in different places.

The term IC80 denotes the concentration needed for an effect of 80%. A word on the IC50: it is the concentration needed to halve the response being measured.

Assay [1] deals with human colon adenocarcinoma (HT29). In words: MTT cell viability assay, HT29. The class given is cell-based. The settings on record: for IC80: 80% growth inhibition. From the text: (§1) In this study, we employed the MTT (3-(4,5-dimethyl thiazol-2-yl)-2,5-diphenyltetrazolium bromide) colorimetric assay to evaluate the cytotoxic activity of selected abietanes (compounds 5, 7, 13, 17, and 19) against three tumor cell lines: human colon adenocarcinoma (HT29), human hepatocarcinoma (HepG2), and murine melanoma (B16–F10). The MTT assay relied on the conversion of MTT to formazan by viable cells, with the formazan concentration proportional to the number of viable cells. The concentrations required for 50 and 80% growth inhibition (IC50 and IC80) were determined for each compound.
(§2) The human colorectal adenocarcinoma cell line HT29 (ECACC no. 9172201; ATCC no. HTB-38), the human hepatocarcinoma cell line HepG2 (ECACC no. 85011430), the mouse melanoma cells B16–F10 (ATCC no. CRL-6475), and the murine monocyte/macrophage like RAW 264.7 cell line (ATCC no, TIB-71) were obtained from the cell bank of the University of Granada, Spain. The tumor cell lines were cultured in DMEM (Dulbecco’s modified Eagle’s medium) supplemented with 2 mM glutamine, 10% heat-inactivated FCS (fetal calf serum), and 50 μg/mL of gentamicin (for all cancer cell lines). The RAW 264.7 cell line was cultured in RPMI1640 medium, supplemented with 2 mM glutamine, 10% heat-inactivated FCS, and 50 μg/mL of gentamicin. All cell lines were incubated at 37 °C, in an atmosphere of 5% CO2 and 95% humidity. The culture media were changed every 48 h, and the confluent cultures were separated with a trypsin solution (0.25% EDTA). In all experiments, monolayer cells were grown to 80–90% confluence in sterile cell culture flasks.
(§3) The effects of the compounds on the cell viability were established using the MTT method (Sigma, St. Louis, MO, USA). The cytotoxicity of the compounds was assessed by measuring the absorbance of MTT dye staining of metabolically competent cells. The cells were cultivated in 96-well plates at 6.0 × 10^3 cells/mL for the HT29 and RAW 264.7 cell lines, at 5.0 × 10^3 cells/mL for B16–F10 cells, and 15.0 × 10^3 cells/mL for the HepG2 cell line, with a final volume of 200 μL per well being incubated with the different products (0–100 μg/mL). After 72 h, 100 μL of MTT solution (0.5 mg/mL) in 50% of PBS and 50% of the medium was added to each well. Following incubation for 1.5 h, formazan was resuspended in 100 μL of DMSO, and each concentration was tested in triplicate. The cell viability relative to the untreated control cells was determined by measuring the absorbance at 570 nm using an ELISA plate reader (Tecan Sunrise MR20–301, TECAN, Grödig, Austria).
A general note: Tetrazolium dyes change colour on reduction, which living cells bring about.

Assay [2] concerns human hepatocarcinoma (HepG2). In words: MTT cell viability assay, HepG2. The format is cell-based. The conditions noted are these: for IC80: 80% growth inhibition.
Excerpt: as §1, §2, §3

Assay [3] has as its system murine melanoma (B16–F10). In words: MTT cell viability assay, B16-F10. The settings on record: Mus musculus, 72 h; for IC80: 80% growth inhibition. The format is cell-based.
Excerpt: as §1, §2, §3

Assay [4] concerns HT29 cells. In words: HT29 cell cycle analysis (PI flow cytometry). The format is cell-based, human. The conditions noted are these: HT29, 72 h. As to the method: Flow cytometry was employed to assess the impact of compounds 5 and 13 on the cell cycle profiles of HT29 cells after 72 h of treatment; by using propidium iodide (PI) incorporation, whose fluorescence directly correlated with DNA content, we analyzed the distribution of cells in different cell cycle phases.
The amount of DNA in the different phases of the cell cycle (G0/G1, S, and G2/M) was quantified using flow cytometry after staining with propidium iodide (PI). HT29 cells were seeded at a density of 5 × 10^4 cells per well in 24-well plates containing 1.5 mL of culture medium. […] Next, the cells were washed twice with PBS, trypsinized, and resuspended in 1 × TBS (10 mM Tris and 150 mM NaCl). After this, Vindelov buffer (100 mM Tris, 100 mM NaCl, 10 mg/mL Rnase, 1 mg/mL PI, and 0.1% Triton x-100, pH 8) was added. Finally, the cells were kept on ice and stained with 20 μL of 1 mg/mL PI solution before being measured. Each experiment analyzed approximately 10 × 10^3 cells. The experiments were performed twice, each with three replications per assay. The samples were analyzed using a flow cytometer, and the number of cells in each stage of the cell cycle was estimated by […] cell sorting (FACS) at 488 nm in an Epics XL flow cytometer (Coulter Corporation, Hialeah, FL, USA).

Assay [5] concerns HT29 cells. In words: Mitochondrial membrane potential by flow cytometry (Rh123/DHR). The settings on record: HT29, 72 h. The format is cell-based, human. An excerpt: Apoptotic effects induced by anticancer agents can be mediated through two major pathways: intrinsic and extrinsic apoptotic pathways. The intrinsic pathway involves the disruption of the mitochondrial membrane and changes in the mitochondrial membrane potential (MMP), while the extrinsic pathway leads to apoptosis without initial MMP alterations. […] Further investigations are necessary to elucidate the detailed molecular mechanisms underlying their apoptotic effect.
We analyzed the electrochemical gradient across the mitochondrial membrane via analytical flow cytometry, using dihydrorhodamine (DHR). A total of 5 × 10^4 HT29 cells were plated in 24-well plates for this assay. […] Next, the medium was replaced by adding fresh solution with DHR to a final concentration of 5 μg/mL. The cells were incubated at 37 °C for 1 h, washed, and resuspended in PBS with 5 μg/mL of PI. The fluorescence intensity was measured using a FACScan flow cytometer (fluorescence-activated cell sorter). The experiments were performed two times, each with three replications per assay.

Assay [6] relates to HT29 cells. In words: Hoechst-stained fluorescence microscopy (nuclear morphology). The format is cell-based, human. The conditions noted are these: HT29, 72 h. An excerpt: To assess the apoptosis induction capacity of compounds 5 and 13 on HT29 cells, we performed Hoechst […] nuclear staining, a well-established method for visualizing the morphological changes associated with apoptosis. Two principal morphological characteristics can be observed in the apoptosis process, chromatin condensation and nuclei fragmentation. Hoechst is a dye capable of penetrating cells and binding to double-stranded DNA, emitting blue light that can be visualized by using fluorescence microscopy.
The morphological changes were analyzed using Hoechst-stained fluorescence microscopy. For the analysis, 15 × 10^4 HT29 cells were plated on a coverslip within a 24-well plate. […] The cells were washed twice with PBS, treated with cold MeOH for 3 min, washed again with PBS, and then incubated in 500 μL of Hoechst solution (50 ng/mL) in PBS for 15 min in the dark. Finally, the samples were visualized through fluorescent microscopy (DMRB, Leica Microsystems, Wetzlar, Germany) under a DAPI filter.

Assay [7] has as its system HT29, HepG2 and B16–F10 cell lines. In words: MTT cell viability assay, span over all three tumor cell lines. The format is cell-based. The conditions noted are these: 72 h.
Excerpt: as §1
The human colorectal adenocarcinoma cell line HT29 (ECACC no. 9172201; ATCC no. HTB-38), the human hepatocarcinoma cell line HepG2 (ECACC no. 85011430), the mouse melanoma cells B16–F10 (ATCC no. CRL-6475), and the murine monocyte/macrophage like RAW 264.7 cell line (ATCC no, TIB-71) were obtained from the cell bank of the University of Granada, Spain. […]
The effects of the compounds on the cell viability were established using the MTT method (Sigma, St. Louis, MO, USA). The cytotoxicity of the compounds was assessed by measuring the absorbance of MTT dye staining of metabolically competent cells. […] The cell viability relative to the untreated control cells was determined by measuring the absorbance at 570 nm using an ELISA plate reader (Tecan Sunrise MR20–301, TECAN, Grödig, Austria).

Where [8] appears, read: Homo sapiens, HT-29, 72 h, read-out: IC50.
The mark [9] stands for this setting: Homo sapiens, HepG2, 72 h, read-out: IC50.

As for `CC(C)C1=CC2=C(C(=O)C1=O)C1=CC(=O)CC(C)(C)[C@@]1(C)C=C2` [Compound 5, Pygmaeocin B], the 80% effect concentration (IC80) in assay [1] (Homo sapiens, HT-29, 72 h) turned out to be 9.73 ± 1.18 µg/mL (≈ 31.3 µM); in assay [2] (Homo sapiens, 72 h) it was 11.4 ± 1.08 µg/mL (≈ 36.8 µM); in assay [3], 14.04 ± 0.08 µg/mL (≈ 45.2 µM). In addition, the IC50 in assay [1] (setting [8]) is 6.69 ± 1.18 µg/mL (≈ 21.6 µM); in assay [2] (72 h, listed as Pygmaeocin B (5)) it was 8.99 ± 1.12 µg/mL (≈ 29 µM); in assay [2] (setting [9]), 8.98 µg/mL (≈ 28.9 µM); in assay [3], 13.6 ± 0.14 µg/mL (≈ 43.9 µM). For the same compound, the “increase in the cell population in the S phase compared with the control” value in the assay with HT29 cells [4] (IC50 dose) is given as 4%; with HT29 cells [4] (IC80 dose), 10%. Also, the “decrease in positive Rh123-stained cells with regard to untreated control” value is 54% in the assay with HT29 cells [5] (IC50 concentration) and 61% with HT29 cells [5] (IC80 concentration). Besides, the “nuclear morphology, Hoechst staining” value with HT29 cells [6] (IC50 concentration) is “loss of normal nuclear architecture and chromatin condensation”; in the assay with HT29 cells [6] (IC80 concentration), “formation of pyknotic or contracted nuclei followed by fragmentation into apoptotic bodies”.

With `CC(C)C1=CC2=C(C(=O)C1=O)[C@@]1(C)CCCC(C)(C)[C@@H]1CC2` [Compound 13], the IC50 in assay [1] (72 h, listed as Precursor (13)) is 2.67 ± 0.82 µg/mL (≈ 8.89 µM); in assay [1] (setting [8]), 2.7 ± 0.8 µg/mL (≈ 8.99 µM); in assay [2] (setting [9]), 5.58 ± 0.93 µg/mL (≈ 18.6 µM); in assay [3], 4.14 ± 0.25 µg/mL (≈ 13.8 µM); in assay [7] (read-out: IC50 values, range in all three cell lines), 2.67 to 5.58 µg/mL (≈ 8.89 to 18.6 µM). Also, the IC80 is 5.19 ± 0.68 µg/mL (≈ 17.3 µM) in assay [1] (Homo sapiens, HT-29, 72 h); 7.67 ± 0.8 µg/mL (≈ 25.5 µM) in assay [2] (Homo sapiens, 72 h); 5.41 ± 0.25 µg/mL (≈ 18 µM) in assay [3]; 5.19 to 7.67 µg/mL (≈ 17.3 to 25.5 µM) in assay [7] (read-out: IC80 values, range in all three cell lines). Further, the “increase in the cell population in the S phase compared with the control” value with HT29 cells [4] (regardless of the administered dose (IC50 and IC80)) came to 10%. Moreover, the “decrease in positive Rh123-stained cells with regard to untreated control” value is “around 40%” in the assay on HT29 cells [5] (IC50 concentration) and 57% in the assay on HT29 cells [5] (IC80 concentration). Also, the “nuclear morphology, Hoechst staining” value in the assay with HT29 cells [6] (IC50 concentration) is “loss of normal nuclear architecture and chromatin condensation”; in the assay on HT29 cells [6] (IC80 concentration), “formation of pyknotic or contracted nuclei followed by fragmentation into apoptotic bodies”.
